≈ marks a conversion by molar mass, not a printed value. Read-outs that look alike come from different tables or passages of the source.
How the values were obtained:
Corynebacterium xerosis = test: broth dilution test, minimum inhibitory concentration; type: cell-based; conditions: about 20 hours at 35° C, tested as monoammonium salt
Shigella sonnei = test: as above; type: cell-based; conditions: about 20 hours at 35° C, tested as monoammonium salt
Protocol: (§1) Antibiotic RIT D-2214 has been tested in form of the mono ammonium salt in position 3 of the penam nucleus and, for that reason, is herein below charcterized as this monoammonium salt.
(§2) The inhibitory levels were determined by the broth dilution test. A series of tubes containing varied concentrations of the monoammonium salt of antibiotic RIT D-2214 were inoculated with the test organism to determine the minimum concentration of the ammonium salt of antibiotic RIT D-2214 in mcg/ml. in the broth substrate which inhibited organism growth for a period of about twenty hours at 35° C.

[1] = tested on: Staphylococcus aureus Pen.resist.; test: as above; type: cell-based; conditions: penicillin resistant, about 20 hours at 35° C, tested as monoammonium salt
Bacillus subtilis = test: as above; type: cell-based; conditions: about 20 hours at 35° C, tested as monoammonium salt
E. coli Pen. resistant = test: as above; type: cell-based; conditions: Escherichia coli, penicillin resistant, about 20 hours at 35° C, tested as monoammonium salt
Alcaligenes faecalis = test: as above; type: cell-based; conditions: about 20 hours at 35° C, tested as monoammonium salt
Klebsiella pneumoniae = test: as above; type: cell-based; conditions: about 20 hours at 35° C, tested as monoammonium salt
Salmonella meleagridis = test: as above; type: cell-based; conditions: about 20 hours at 35° C, tested as monoammonium salt
Salmonella typhi = test: as above; type: cell-based; conditions: Salmonella enterica, 20 h, read-out: Minimum Inhibitory concentration
Salmonella typhimurium = test: as above; type: cell-based; conditions: Salmonella enterica, about 20 hours at 35° C, tested as monoammonium salt
Salmonella panama = test: as above; type: cell-based; conditions: Salmonella enterica, about 20 hours at 35° C, tested as monoammonium salt
Salmonella anatum = test: as above; type: cell-based; conditions: Salmonella enterica, about 20 hours at 35° C, tested as monoammonium salt
Proteus morganii = test: as above; type: cell-based; conditions: Morganella morganii, about 20 hours at 35° C, tested as monoammonium salt
Brucella abortus = test: microbe, parasite or virus in culture; type: cell-based; conditions: 20 h, read-out: Minimum Inhibitory concentration
[2] = tested on: Bordetella bronchiseptica; test: broth dilution test, minimum inhibitory concentration; type: cell-based; conditions: about 20 hours at 35° C, tested as monoammonium salt
Pseudomonas aeruginosa = test: as above; type: cell-based; conditions: about 20 hours at 35° C, tested as monoammonium salt
Escherichia coli 47 = test: mice protection test; type: in vivo; conditions: Escherichia coli, 47, sc, 72 h; s.c., one hour after intravenous infection, observed 3 days; read-out: ED50 (total dose required to protect 50% of the infected mice)
Protocol: (§3) Comparative trials with ampicillin were performed in vivo according to the usual mice protection test procedure. The test compound was administered in graded dilutions to mice either subcutaneously (s.c.) in water or orally (or.) in combination with calcium carbonate one hour after intravenous infection with uniformly lethal doses of the test organism.

Escherichia coli 9 = test: mice protection test; type: in vivo; conditions: Escherichia coli, 9, sc, 72 h; s.c., one hour after intravenous infection, observed 3 days; read-out: ED50 (total dose required to protect 50% of the infected mice)
Protocol: as §3

[3] = tested on: Klebsiella pneumoniae SK&F 4200; test: mice protection test; type: in vivo; conditions: 72 h, one hour after intravenous infection, observed 3 days, read-out: ED50 (total dose required to protect 50% of the infected mice)
Protocol: as §3

Proteus mirabilis 11 = test: mice protection test; type: in vivo; conditions: Proteus mirabilis, 11, sc, 72 h; s.c., one hour after intravenous infection, observed 3 days; read-out: ED50 (total dose required to protect 50% of the infected mice)
Protocol: as §3

[4] = tested on: Salmonella brandebourg 22; test: mice protection test; type: in vivo; conditions: Salmonella, 22, sc, 72 h; s.c., one hour after intravenous infection, observed 3 days; read-out: ED50 (total dose required to protect 50% of the infected mice)
Protocol: as §3

[5] = tested on: Salmonella enteritidis 24; test: mice protection test; type: in vivo; conditions: Salmonella enterica, sc, 72 h, s.c., one hour after intravenous infection, observed 3 days, read-out: ED50 (total dose required to protect 50% of the infected mice)
Protocol: as §3

Salmonella panama 20 = test: mice protection test; type: in vivo; conditions: Salmonella enterica, 20, sc, 72 h; s.c., one hour after intravenous infection, observed 3 days; read-out: ED50 (total dose required to protect 50% of the infected mice)
Protocol: as §3

Shigella flexneri 25 = test: mice protection test; type: in vivo; conditions: Shigella flexneri, 25, sc, 72 h; s.c., one hour after intravenous infection, observed 3 days; read-out: ED50 (total dose required to protect 50% of the infected mice)
Protocol: as §3

[6] = tested on: Staphylococcus aureus 663; test: mice protection test; type: in vivo; conditions: Staphylococcus aureus, 663, sc, 72 h; s.c., one hour after intravenous infection, observed 3 days; read-out: ED50 (total dose required to protect 50% of the infected mice)
Protocol: as §3

[7] = tested on: Vibrio parahaemoliticus 194; test: mice protection test; type: in vivo; conditions: Vibrio, 194, 72 h; oral with calcium carbonate, one hour after intravenous infection, observed 3 days; read-out: ED50 (total dose required to protect 50% of the infected mice)
Protocol: as §3

in vivo [8] = test: in vivo; design: species or system mice; conditions: mouse, sc, 20 mg/kg
Excerpt: (§4) Plasma samples were adequately diluted with sterile water and assayed according to the usual agar diffusion method, using Bacillus subtilis ATCC 6633 as the test organism.

in vivo [9] = test: in vivo; design: species or system rats; conditions: rat, sc, 20 mg/kg
Excerpt: as §4

in vivo [10] = test: in vivo; design: species or system dogs; conditions: dog, sc, 20 mg/kg
Excerpt: as §4

physchem = type: physicochemical; conditions: reconstituted gastric juice, pH 1.3
Excerpt: Antibiotic RIT D-2214 can be colorimetrically assayed by the classical hydroxylamine method of penicillin assay. […] Recoveries were estimated according to the hydroxylamine assay method.

[11] = tested on: Gram-positive and Gram-negative bacteria; test: inhibitory activity against growth of bacteria; type: cell-based; conditions: for antibacterial activity relative to another RIT 2214 form: compared with the RIT 2214 form named in the sentence
Protocol: as §1, §2

mice = conditions: mouse, in vivo, iv, 500 mg/kg
solubility = type: physicochemical

## CC1(C)S[C@@H]2[C@H](NC(=O)[C@H](N)c3ccccc3)C(=O)N2[C@H]1C(=O)O [Ampicillin, ampicillin, reference compound]
Corynebacterium xerosis
  MIC: 0.1 µg/mL
Shigella sonnei
  MIC: 2.5 µg/mL
[1]
  MIC: 20 µg/mL
Bacillus subtilis
  MIC: 0.3 µg/mL
E. coli Pen. resistant
  MIC: 80 µg/mL
Alcaligenes faecalis
  MIC: 1.6 µg/mL
Klebsiella pneumoniae
  MIC: 40 µg/mL
Salmonella meleagridis
  MIC: 0.6 µg/mL
Salmonella typhi
  MIC: 0.6 µg/mL (≈ 1.72 µM)
Salmonella typhimurium
  MIC: 40 µg/mL
Salmonella panama
  MIC: 2.5 µg/mL
Salmonella anatum
  MIC: 0.6 µg/mL
Proteus morganii
  MIC: 20 µg/mL
Brucella abortus
  MIC: 0.6 µg/mL (≈ 1.72 µM)
[2]
  MIC: 0.6 µg/mL
Pseudomonas aeruginosa
  MIC: 80 µg/mL
Escherichia coli 47
  ED50: 23.6 mg/kg
Escherichia coli 9
  ED50: 11.5 mg/kg
[3]; oral with calcium carbonate
  ED50: 50.4 mg/kg
[3]; sc, s.c.
  ED50: 36.7 mg/kg
Proteus mirabilis 11
  ED50: 14.8 mg/kg
[4]
  ED50: 36.4 mg/kg
[5]
  ED50: 55.6 mg/kg
Salmonella panama 20
  ED50: 22 mg/kg
Shigella flexneri 25
  ED50: > 100 mg/kg
[6]
  ED50: < 11 mg/kg
[7]
  ED50: 17.9 mg/kg
In vivo [8]
  concentration at 5 min: 6500 ng/mL
  concentration at 0.25 h: 9000 ng/mL
  concentration at 0.5 h: 3500 ng/mL
  concentration at 1 h: 1000 ng/mL
In vivo [9]
  concentration at 5 min: 7000 ng/mL
  concentration at 0.25 h: 13000 ng/mL
  concentration at 1 h: 5000 ng/mL
  concentration at 2 h: 2500 ng/mL
In vivo [10]
  concentration at 0.25 h: 13000 ng/mL
  concentration at 0.5 h: 18000 ng/mL
  concentration at 1 h: 18000 ng/mL
  concentration at 2 h: 9000 ng/mL
physchem
  half-life: 6.5 h

## CC1(C)S[C@@H]2[C@H](NC(=O)CSC[C@H](N)C(=O)O)C(=O)N2[C@H]1C(=O)O
[11]; Gram-positive and Gram-negative bacteria
  inhibitory activity against the growth of bacteria: active against Grampositive and negative bacteria
[11]
  antibacterial activity relative to another RIT 2214 form: less than the monoammonium salt of RIT D-2214

## CC1(C)S[C@@H]2[C@H](NC(=O)CSC[C@@H](N)C(=O)O)C(=O)N2[C@H]1C(=O)O
mice
  detectable toxicity: does not show any detectable toxicity
solubility; methanol
  solubility in methanol: slightly soluble in methanol
solubility; organic solvents other than methanol
  solubility in other organic solvents: insoluble in other organic solvents
solubility; water
  solubility in water: very soluble in water

## CC1(C)S[C@@H]2[C@H](NC(=O)CSCC(N)C(=O)O)C(=O)N2[C@H]1C(=O)O (mixture of isomers) [RIT DL-2214]
[11]
  antibacterial activity relative to another RIT 2214 form: approximately half
